Experimental data from patent US4267192A, “Method for treating inflammation” (priority 1980, dated 1981).
Read-outs that look alike come from different tables or passages of the source.

Columns and labels:
[1] = system: rat stomach (gastric ulcers, gastric swelling); conditions: especially in long-term therapy; in words; cited from earlier work
[2] = system: polyarthritis induced by Mycobacterium butyricum or tuberculosis in rats; conditions: rat; cited from earlier work
[3] = system: carrageenan-induced edema in the hind paw of the rat; assay: rat carrageenan edema test (hind paw); assay type: in vivo, rat (male Sprague-Dawley); conditions: for Change in paw volume (ml) from 0-3 hr: mean ± S.E.; for % Change in paw edema: vs control
Experimental: (§1) Vehicle alone is administered as a control. Sixty minutes after drug administration edema is induced by an injection of 0.1 ml. of a 1% carrageenan solution is saline into the subplantar tissue of the rat's right hind paw. Two minutes later, paw volume is measured volumetrically with a plethysmograph and again 3 hours later. The mean volume of swelling for the control group is calculated and compared to the test groups. Percent change in paw edema is calculated and analyzed statistically (unpaired, Student's t-test).

prostaglandin synthetase = target: T1, prostaglandin synthetase (Ovis aries, UniProt P05979); conditions: in words; cited from earlier work
T1 sequence (P05979 25-600): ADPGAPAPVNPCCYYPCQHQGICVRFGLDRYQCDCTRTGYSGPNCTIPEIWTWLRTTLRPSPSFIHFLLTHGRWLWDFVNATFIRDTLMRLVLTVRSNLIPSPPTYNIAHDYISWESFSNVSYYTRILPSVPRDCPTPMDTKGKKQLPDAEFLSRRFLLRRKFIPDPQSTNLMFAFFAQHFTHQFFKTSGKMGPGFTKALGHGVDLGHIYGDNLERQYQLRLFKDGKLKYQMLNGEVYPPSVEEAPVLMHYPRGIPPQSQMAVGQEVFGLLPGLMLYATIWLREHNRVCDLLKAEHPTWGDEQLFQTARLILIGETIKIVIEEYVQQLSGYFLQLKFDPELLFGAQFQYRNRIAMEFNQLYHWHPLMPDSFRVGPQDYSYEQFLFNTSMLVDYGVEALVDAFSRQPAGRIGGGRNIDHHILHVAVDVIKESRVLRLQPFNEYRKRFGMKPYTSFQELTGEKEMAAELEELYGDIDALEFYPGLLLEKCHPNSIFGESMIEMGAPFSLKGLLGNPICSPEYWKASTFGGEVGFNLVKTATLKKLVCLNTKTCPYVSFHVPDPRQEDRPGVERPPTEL

[4] = system: carrageenan-induced edema in the hind paw of normal and adrenalectomized rats; assay: carrageenan paw edema in normal and adrenalectomized rats; assay type: in vivo, rat
Experimental: as §1
Normal rats received the same doses as adrenalectomized rats.

[5] = system: rat stomach (gastric ulcers, gastric swelling); assay type: in vivo, rat (male Charles River, Sprague-Dawley); conditions: for Number of Animals With Gastric Swelling / Number of Animals With Gastric Ulcers: rat, 4 hours after dosing
Experimental: The rats are divided into groups 6-10 and dosed by the oral route with test compound, on a mg/kg. body weight basis, or vehicle control, 0.5% carboxymethylcellulose, in a volume of 3 ml. per rat. Four hours after dosing, the rats are decapitated and exsanguinated. Stomachs are removed and examined for gastric swelling and then opened and washed for visual inspection of gastric ulcers. Only one lesion or gastric bleeding is necessary for a positive response. Data is reported quantally.

[6] = system: polyarthritis induced by Mycobacterium butyricum or tuberculosis in rats; conditions: rat; for Increase in Left Paw Volume (ml.) 0-16 days / Increase in Right Paw Volume (ml.) 0-4 days: mean ± S.E.
Experimental: (§2) Polyarthritis is induced in groups of 6-10 Sprague-Dawley rats weighing between 180-220 g. by a subcutaneous injection into the right paw of dessicated Mycobacterium butyricum or tuberculosis (0.5 mg/0.1 ml.) suspended in light mineral oil. […] Both hind paw volumes (ml.) are measured by mercury plethysmograph on day 0 or at the time of injection of the complete adjuvant. Increases in paw volume (viz. edema) are determined for both paws on days 4 and 16. The change in body weight from day 0 to day 16 is also calculated. Statistical analysis of differences in paw edemas and body weight is performed by using the unpaired. Student's t-test.

[7] = system: prostaglandin synthesis in gastric mucosa; conditions: background; in words; cited from earlier work
[8] = system: established adjuvant arthritis in rats; assay: established adjuvant arthritis, dosing on days 16, 17 and 18; conditions: rat
Experimental: as §2
The changes in left paw edema are measured at the end of 19 days, 23 days and 30 days.

[9] = background; in words; cited from earlier work
[10] = oral 270 mg/kg, Table 1 group d
[11] = Adrenalectomized Rats, oral 300 mg/kg
[12] = oral 180 mg/kg, Table 1 group e
[13] = oral 0.1 mg/kg daily, Table 3 group a
[14] = oral 0.3 mg/kg daily, Table 3 group a
[15] = oral 1.0 mg/kg daily, Table 3 group a
[16] = oral 3.0 mg/kg daily, Table 3 group a
[17] = oral 0.33 mg/kg, days 16, 17, 18
[18] = oral 1.00 mg/kg, days 16, 17, 18
[19] = oral 3.00 mg/kg, days 16, 17, 18
[20] = Adrenalectomized Rats, oral 5 mg/kg
[21] = oral 120 mg/kg, Table 1 group f
[22] = oral 240 mg/kg, Table 1 group f
[23] = oral 480 mg/kg, Table 1 group f
[24] = oral 25.0 mg/kg daily, Table 3 group b

CC(=O)Oc1ccccc1C(=O)O [Aspirin, aspirin, reference compound]
gastric ulcerogenicity [1]: proven gastric ulcerogens
ED50 (adjuvant arthritis test), has been assessed [2]: approximately 140 mg/kg
estimated ED50 (carrageenan paw edema) ([3]; oral): ~110 mg/kg
Change in paw volume (ml) from 0-3 hr ([3]; oral 30 mg/kg, Table 1 group d): 0.63 ± 0.02 mL
% Change in paw edema ([3]; oral 30 mg/kg, Table 1 group d): -28%
Change in paw volume (ml) from 0-3 hr ([3]; oral 90 mg/kg, Table 1 group d): 0.54 ± 0.04 mL
% Change in paw edema ([3]; oral 90 mg/kg, Table 1 group d): -39%
Change in paw volume (ml) from 0-3 hr [3, 10]: 0.29 ± 0.10 mL
% Change in paw edema [3, 10]: -67%
appreciable effects on prostaglandin synthetase activity (prostaglandin synthetase): appreciable effects on prostaglandin synthetase activity
% Inhibition [4, 11]: 34%
Edema (ml) ± S.E. [4, 11]: 0.64 ± .04 mL
animals died ([4]; Adrenalectomized Rats, oral 300 mg/kg, footnote a): 1/6
% Inhibition ([4]; Normal Rats, oral 300 mg/kg): 44%
Mean Edema (ml) ± S.E. ([4]; Normal Rats, oral 300 mg/kg): 0.52 ± .07 mL

CCOC(=O)C=C1c2ccccc2C=Cc2ccccc21 [EDCHA, ethyl(5H-dibenzo[a,d]cyclohepten-5-ylidene)acetate]
oral doses that inhibit carrageenan paw edema ([3]; oral): 10 to 180 mg/kg
Change in paw volume (ml) from 0-3 hr ([3]; oral 20 mg/kg, Table 1 group e): 1.11 ± 0.08 mL
% Change in paw edema ([3]; oral 20 mg/kg, Table 1 group e): -4%
Change in paw volume (ml) from 0-3 hr ([3]; oral 60 mg/kg, Table 1 group e): 0.98 ± 0.06 mL
% Change in paw edema ([3]; oral 60 mg/kg, Table 1 group e): -15%
Change in paw volume (ml) from 0-3 hr [3, 12]: 0.87 ± 0.04 mL
% Change in paw edema [3, 12]: -25%

COc1ccc2c(c1)c(CC(=O)O)c(C)n2C(=O)c1ccc(Cl)cc1 [Indomethacin, indomethacin, reference compound]
gastric ulcerogenicity [1]: proven gastric ulcerogens
effects on the gastric tract ([5]; dosage levels indicated for treatment of inflammatory conditions): significant effects on the gastric tract
Number of Animals With Gastric Swelling ([5]; oral 2.5 mg/kg): 0/10
Number of Animals With Gastric Ulcers ([5]; oral 2.5 mg/kg): 0/9
Number of Animals With Gastric Swelling ([5]; oral 5.0 mg/kg): 0/10
Number of Animals With Gastric Ulcers ([5]; oral 5.0 mg/kg): 9/10
Number of Animals With Gastric Swelling ([5]; oral 10.0 mg/kg): 0/10
Number of Animals With Gastric Ulcers ([5]; oral 10.0 mg/kg): 10/10
% Change of Left Paw Edema at Day 16 [6, 13]: +5.1%
% Change of Right Paw Edema at Day 4 [6, 13]: -31%
Change In Body Weight (mean ± S.E.) 0-16 days [6, 13]: 16.9 ± 9.0
Increase in Left Paw Volume (ml.) 0-16 days [6, 13]: 0.82 ± .12 mL
Increase in Right Paw Volume (ml.) 0-4 days [6, 13]: 1.07 ± .15 mL
% Change of Left Paw Edema at Day 16 [6, 14]: -33%
% Change of Right Paw Edema at Day 4 [6, 14]: -30%
Change In Body Weight (mean ± S.E.) 0-16 days [6, 14]: 25.7 ± 7.8
Increase in Left Paw Volume (ml.) 0-16 days [6, 14]: 0.52 ± .07 mL
Increase in Right Paw Volume (ml.) 0-4 days [6, 14]: 1.09 ± .06 mL
% Change of Left Paw Edema at Day 16 [6, 15]: -55%
% Change of Right Paw Edema at Day 4 [6, 15]: -42%
Change In Body Weight (mean ± S.E.) 0-16 days [6, 15]: 36.5 ± 7.9
Increase in Left Paw Volume (ml.) 0-16 days [6, 15]: 0.35 ± .03 mL
Increase in Right Paw Volume (ml.) 0-4 days [6, 15]: 0.90 ± .11 mL
% Change of Left Paw Edema at Day 16 [6, 16]: -65%
% Change of Right Paw Edema at Day 4 [6, 16]: -37%
Change In Body Weight (mean ± S.E.) 0-16 days [6, 16]: 49.8 ± 6.2
Increase in Left Paw Volume (ml.) 0-16 days [6, 16]: 0.27 ± .03 mL
Increase in Right Paw Volume (ml.) 0-4 days [6, 16]: 0.99 ± .05 mL
estimated ED50 (adjuvant arthritis test) ([6]; oral, daily): ~0.9 mg/kg
inhibitory effect on prostaglandin synthesis in gastric mucosa [7]: marked inhibitory effect on prostaglandin synthesis in gastric mucosa
estimated ED50 (carrageenan paw edema) ([3]; oral): ~2.7 mg/kg
Change in paw volume (ml) from 0-3 hr ([3]; oral 1 mg/kg, Table 1 group b): 0.65 ± 0.06 mL
% Change in paw edema ([3]; oral 1 mg/kg, Table 1 group b): -36%
Change in paw volume (ml) from 0-3 hr ([3]; oral 3 mg/kg, Table 1 group b): 0.50 ± 0.07 mL
% Change in paw edema ([3]; oral 3 mg/kg, Table 1 group b): -51%
Change in paw volume (ml) from 0-3 hr ([3]; oral 5 mg/kg, Table 1 group e): 0.54 ± 0.08 mL
% Change in paw edema ([3]; oral 5 mg/kg, Table 1 group e): -53%
Change in paw volume (ml) from 0-3 hr ([3]; oral 9 mg/kg, Table 1 group b): 0.32 ± 0.02 mL
% Change in paw edema ([3]; oral 9 mg/kg, Table 1 group b): -69%
appreciable effects on prostaglandin synthetase activity (prostaglandin synthetase): appreciable effects on prostaglandin synthetase activity
rats died by the 23rd day ([8]; 3.00 mg/kg, days 16, 17 and 18): six out of ten rats had died
% Change from Control, left paw edema (day 0-19) [8, 17]: -31%
% Change from Control, left paw edema (day 0-23) [8, 17]: +6%
% Change from Control, left paw edema (day 0-30) [8, 17]: -6%
Increase in left paw edema ml. (day 0-19) [8, 17]: 0.70 ± 0.11 mL
Increase in left paw edema ml. (day 0-23) [8, 17]: 1.02 ± 0.14 mL
Increase in left paw edema ml. (day 0-30) [8, 17]: 1.41 ± 0.20 mL
% Change from Control, left paw edema (day 0-19) [8, 18]: -40%
% Change from Control, left paw edema (day 0-23) [8, 18]: +4%
% Change from Control, left paw edema (day 0-30) [8, 18]: -22%
Increase in left paw edema ml. (day 0-19) [8, 18]: 0.62 ± 0.05 mL
Increase in left paw edema ml. (day 0-23) [8, 18]: 1.00 ± 0.06 mL
Increase in left paw edema ml. (day 0-30) [8, 18]: 1.18 ± 0.10 mL
% Change from Control, left paw edema (day 0-19) [8, 19]: -60%
Increase in left paw edema ml. (day 0-19) [8, 19]: 0.41 ± 0.06 mL
deaths (day 0-23) [8, 19]: 6/10
deaths (day 0-30) [8, 19]: 6/10
% Inhibition [4, 20]: 59%
Edema (ml) ± S.E. [4, 20]: 0.42 ± .09 mL
% Inhibition ([4]; Normal Rats, oral 5 mg/kg): 60%
Mean Edema (ml) ± S.E. ([4]; Normal Rats, oral 5 mg/kg): 0.42 ± .09 mL

COC(=O)C=C1c2ccccc2C=Cc2ccccc21 [MDCHA, Methyl(5H-dibenzo[a,d]cyclohepten-5-ylidene)acetate]
Change in paw volume (ml) from 0-3 hr ([3]; oral 60 mg/kg, Table 1 group f): 0.68 ± 0.08 mL
% Change in paw edema ([3]; oral 60 mg/kg, Table 1 group f): -8%
Change in paw volume (ml) from 0-3 hr [3, 21]: 0.59 ± 0.08 mL
% Change in paw edema [3, 21]: -20%
Change in paw volume (ml) from 0-3 hr [3, 22]: 0.68 ± 0.10 mL
% Change in paw edema [3, 22]: -8%
Change in paw volume (ml) from 0-3 hr [3, 23]: 0.59 ± 0.07 mL
% Change in paw edema [3, 23]: -20%

CCCCC1C(=O)N(c2ccccc2)N(c2ccccc2)C1=O [Phenylbutazone, phenylbutazone, reference compound]
bone marrow depression [9]: can cause bone marrow depression
% Change of Left Paw Edema at Day 16 [6, 24]: -39%
% Change of Right Paw Edema at Day 4 [6, 24]: -44%
Change In Body Weight (mean ± S.E.) 0-16 days [6, 24]: 24.0 ± 6.3
Increase in Left Paw Volume (ml.) 0-16 days [6, 24]: 0.45 ± .13 mL
Increase in Right Paw Volume (ml.) 0-4 days [6, 24]: 1.04 ± .05 mL
